Source: patent publication US20230159445A1, “STAT INHIBITORY COMPOUNDS AND COMPOSITIONS” (JANPIX LIMITED, priority 2020, published 2023)

Legend:
MV4-11 cells = test: MV4-11 Cell Cytotoxicity Assay (CellTiter-Blue, 72 h); format: cell-based, human; details: Homo sapiens, MV4-11; MV-4-11 cells
Outline: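 Cells seeded 24 h before treatment, then exposed 72 h at 37° C, 5% CO2 to inhibitors in triplicate, top concentration 50 μM with 1:2 serial dilutions (0.5% DMSO vehicle). Viability read by CellTiter-Blue fluorescence at 560/590 nm after 1 h.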

glutathione (GSH) = test: Reactivity Profiling with Glutathione (GSH), half-life by HPLC; details: 5 mM glutathione (GSH) in IMDM with 10% FBS

Row | Compound | IC50 (MV4-11 cells) [nM] | half-life at 25 μM (glutathione (GSH)) [h]
1 | CN(C)c1cc(C(=O)O)ccc1N(Cc1cc(C2CC2)cc(C(C)(C)C)c1)C(=O)CN(Cc1ccccc1F)S(=O)(=O)c1c(F)c(F)c(F)c(F)c1F [Compound 1105, 4-(N-(3-(tert-butyl)-5-cyclopropylbenzyl)-2-(N-(2-fluorobenzyl)-(2,3,4,5,6-pentafluoro-phenyl)sulfonamido)acetamido)-3-(dimethylamino)benzoic acid] | 0.01 to 316 | 4.12 to 9.23
2 | CC(C)(C)c1cc(CN(C(=O)CN(Cc2ccccc2F)S(=O)(=O)c2c(F)c(F)c(F)c(F)c2F)c2cc(C(=O)O)ccc2OC2CC2)cc(C2CC2)c1 [Compound 1110, 3-(N-(3-(tert-butyl)-5-cyclopropylbenzyl)-2-(N-(2-fluorobenzyl)-(2,3,4,5,6-pentafluoro-phenyl)sulfonamido)acetamido)-4-cyclopropoxybenzoic acid] | 316 to 1000 | 2.37 to 4.12
3 | CC(C)(C)c1cc(CN(C(=O)CN(Cc2ncccc2C(F)(F)F)S(=O)(=O)c2c(F)c(F)c(F)c(F)c2F)c2ccc(C(=O)O)cc2C2CC2)cc(C2CC2)c1 [Compound 1115, 4-(N-(3-(tert-butyl)-5-cyclopropylbenzyl)-2-(N-((3-(trifluoromethyl)pyridin-2-yl)methyl)-(2,3,4,5,6-pentafluoro-phenyl)sulfonamido)acetamido)-3-cyclopropylbenzoic acid] | 0.01 to 316 | 4.12 to 9.23
4 | COc1cc(C(=O)O)ccc1N(Cc1cc(C2CC2)cc(C(C)(C)C)c1)C(=O)CN(Cc1ccc(C(F)(F)F)cn1)S(=O)(=O)c1c(F)c(F)c(F)c(F)c1F [Compound 1117, 4-(N-(3-(tert-butyl)-5-cyclopropylbenzyl)-2-(N-((5-(trifluoromethyl)pyridin-2-yl)methyl)-(2,3,4,5,6-pentafluoro-phenyl)sulfonamido)acetamido)-3-methoxybenzoic acid] | 316 to 1000 | 2.37 to 4.12
5 | COc1cc(C(=O)O)ccc1N(Cc1cc(C2CC2)cc(C(C)(C)C)c1)C(=O)CN(Cc1cccc(C(F)(F)F)n1)S(=O)(=O)c1c(F)c(F)c(F)c(F)c1F [Compound 1118, 4-(N-(3-(tert-butyl)-5-cyclopropylbenzyl)-2-(N-((6-(trifluoromethyl)pyridin-2-yl)methyl)-(2,3,4,5,6-pentafluoro-phenyl)sulfonamido)acetamido)-3-methoxybenzoic acid] | 316 to 1000 | 0.00167 to 2.37
6 | CN(C)c1cc(C(=O)O)c(F)cc1N(Cc1cc(C2CC2)cc(C(C)(C)C)c1)C(=O)CN(Cc1c(F)cc(F)cc1F)S(=O)(=O)c1c(F)c(F)c(F)c(F)c1F [Compound 1124, 4-(N-(3-(tert-butyl)-5-cyclopropylbenzyl)-2-(N-(2,4,6-trifluorobenzyl)-(2,3,4,5,6-pentafluoro-phenyl)sulfonamido)acetamido)-5-(dimethylamino)-2-fluorobenzoic acid] | 0.01 to 316 | 4.12 to 9.23
7 | O=C(O)c1ccc(N(Cc2ccccc2)C(=O)CN(Cc2ccccc2C(F)(F)F)S(=O)(=O)c2c(F)c(F)c(F)c(F)c2F)c(OC2CC2)c1 [Compound 1126, 4-(N-benzyl-2-(N-(2-(trifluoromethyl)benzyl)-(2,3,4,5,6-pentafluoro-phenyl)sulfonamido)acetamido)-3-cyclopropoxybenzoic acid] | 1000 to 3160 | 0.00167 to 2.37
8 | O=C(O)c1ccc(N(Cc2ncccn2)C(=O)CN(Cc2ccccc2C(F)(F)F)S(=O)(=O)c2c(F)c(F)c(F)c(F)c2F)c(OC2CC2)c1 [Compound 1128, 3-cyclopropoxy-4-(2-(N-(2-(trifluoromethyl)benzyl)-(2,3,4,5,6-pentafluoro-phenyl)sulfonamido)-N-(pyrimidin-2-ylmethyl)acetamido) benzoic acid] | 1000 to 3160 | 0.00167 to 2.37
9 | O=C(O)c1ccc(N(C(=O)CN(Cc2ccccc2C(F)(F)F)S(=O)(=O)c2c(F)c(F)c(F)c(F)c2F)C2CCC2)c(OC2CC2)c1 [Compound 1129, 4-(N-cyclobutyl-2-(N-(2-(trifluoromethyl)benzyl)-(2,3,4,5,6-pentafluoro-phenyl)sulfonamido)acetamido)-3-cyclopropoxybenzoic acid] | 3160 to 100000 | 2.37 to 4.12
10 | COc1cc(C(=O)O)ccc1N(Cc1cc(C2CC2)cc(C(C)(C)C)c1)C(=O)CN(Cc1ccncc1C(F)(F)F)S(=O)(=O)c1c(F)c(F)c(F)c(F)c1F [Compound 1130, 4-(N-(3-(tert-butyl)-5-cyclopropylbenzyl)-2-(N-((3-(trifluoromethyl)pyridin-4-yl)methyl)-(2,3,4,5,6-pentafluoro-phenyl)sulfonamido)acetamido)-3-methoxybenzoic acid] | 316 to 1000 | 2.37 to 4.12
11 | COc1cc(C(=O)O)ccc1N(Cc1cc(C2CC2)cc(C(C)(C)C)c1)C(=O)CN(Cc1ccc(C(F)(F)F)nc1)S(=O)(=O)c1c(F)c(F)c(F)c(F)c1F [Compound 1132, 4-(N-(3-(tert-butyl)-5-cyclopropylbenzyl)-2-(N-((6-(trifluoromethyl)pyridin-3-yl)methyl)-(2,3,4,5,6-pentafluoro-phenyl)sulfonamido)acetamido)-3-methoxybenzoic acid] | 316 to 1000 | 2.37 to 4.12
12 | COc1cc(C(=O)O)ccc1N(Cc1cc(C2CC2)cc(C(C)(C)C)c1)C(=O)CN(Cc1ccnc(C(F)(F)F)c1)S(=O)(=O)c1c(F)c(F)c(F)c(F)c1F [Compound 1133, 4-(N-(3-(tert-butyl)-5-cyclopropylbenzyl)-2-(N-((2-(trifluoromethyl)pyridin-4-yl)methyl)-(2,3,4,5,6-pentafluoro-phenyl)sulfonamido)acetamido)-3-methoxybenzoic acid] | 316 to 1000 | 0.00167 to 2.37
13 | COc1cc(C(=O)O)ccc1N(Cc1cc(C2CC2)cc(C(C)(C)C)c1)C(=O)CN(Cc1cc(C(F)(F)F)ccn1)S(=O)(=O)c1c(F)c(F)c(F)c(F)c1F [Compound 1134, 4-(N-(3-(tert-butyl)-5-cyclopropylbenzyl)-2-(N-((4-(trifluoromethyl)pyridin-2-yl)methyl)-(2,3,4,5,6-pentafluoro-phenyl)sulfonamido)acetamido)-3-methoxybenzoic acid] | 1000 to 3160 | 2.37 to 4.12
14 | CC(C)(C)c1cc(CN(C(=O)CN(Cc2ccc(C(F)(F)F)cc2)S(=O)(=O)c2c(F)c(F)c(F)c(F)c2F)c2ccc(C(=O)O)cc2OC2CC2)cc(C2CC2)c1 [Compound 1136, 4-(N-(3-(tert-butyl)-5-cyclopropylbenzyl)-2-(N-(4-(trifluoromethyl)benzyl)-(2,3,4,5,6-pentafluoro-phenyl)sulfonamido)acetamido)-3-cyclopropoxybenzoic acid] | 1000 to 3160 | 9.23 to 1670
15 | O=C(O)c1ccc(N(C(=O)CN(Cc2c(F)cc(F)cc2F)S(=O)(=O)c2c(F)c(F)c(F)c(F)c2F)C2CCC2)c(OC2CC2)c1 [Compound 1137, 4-(N-cyclobutyl-2-(N-(2,4,6-trifluorobenzyl)-(2,3,4,5,6-pentafluoro-phenyl)sulfonamido)acetamido)-3-cyclopropoxybenzoic acid] | 1000 to 3160 | 0.00167 to 2.37
16 | COc1cc(C(=O)N(C)S(C)(=O)=O)ccc1N(Cc1cc(C2CC2)cc(C(C)(C)C)c1)C(=O)CN(Cc1cnccc1C(F)(F)F)S(=O)(=O)c1c(F)c(F)c(F)c(F)c1F [Compound 1147, 4-(N-(3-(tert-butyl)-5-cyclopropylbenzyl)-2-(N-((4-(trifluoromethyl)pyridin-3-yl)methyl)-(2,3,4,5,6-pentafluoro-phenyl)sulfonamido)acetamido)-3-methoxy-N-methyl-N-(methylsulfonyl) benzamide] | 0.01 to 316 | 9.23 to 1670
17 | COc1cc(C(=O)O)ccc1N(Cc1cccc(C(C)(C)C)c1)C(=O)CN(Cc1cnccc1C(F)(F)F)S(=O)(=O)c1c(F)c(F)c(F)c(F)c1F [Compound 1149, 4-(N-(3-(tert-butyl)benzyl)-2-(N-((4-(trifluoromethyl)pyridin-3-yl)methyl)-(2,3,4,5,6-pentafluoro-phenyl)sulfonamido)acetamido)-3-methoxybenzoic acid] | 316 to 1000 | 0.00167 to 2.37
18 | COc1cc(C(=O)O)ccc1N(Cc1cccc(C(C)(C)C)c1)C(=O)CN(Cc1c(F)cc(F)cc1F)S(=O)(=O)c1c(F)c(F)c(F)c(F)c1F [Compound 1150, 4-(N-(3-(tert-butyl)benzyl)-2-(N-(2,4,6-trifluorobenzyl)-(2,3,4,5,6-pentafluoro-phenyl)sulfonamido)acetamido)-3-methoxybenzoic acid] | 0.01 to 316 | 0.00167 to 2.37
19 | COc1cc(C(=O)O)ccc1N(Cc1cc(C2CC2)cc(C(C)(C)C)c1)C(=O)CN(C12CC(C1)C2)S(=O)(=O)c1c(F)c(F)c(F)c(F)c1F [Compound 1152, 4-(2-(N-(bicyclo[1.1.1]pentan-1-yl)-(2,3,4,5,6-pentafluorophenyl)sulfon-amido)-N-(3-(tert-butyl)-5-cyclopropylbenzyl)acetamido)-3-methoxybenzoic acid] | 1000 to 3160 | 0.00167 to 2.37
20 | COc1cc(C(=O)O)ccc1N(Cc1cccc(N2CCCC2)c1)C(=O)CN(Cc1cnccc1C(F)(F)F)S(=O)(=O)c1c(F)c(F)c(F)c(F)c1F [Compound 1153, 3-methoxy-4-(2-(N-((4-(trifluoromethyl)pyridin-3-yl)methyl)-(2,3,4,5,6-pentafluoro-phenyl)sulfonamido)-N-(3-(pyrrolidin-1-yl)benzyl)acetamido) benzoic acid] | 316 to 1000 | 0.00167 to 2.37
21 | COc1cc(C(=O)O)ccc1N(Cc1ccc2ccccc2c1)C(=O)CN(Cc1cnccc1C(F)(F)F)S(=O)(=O)c1c(F)c(F)c(F)c(F)c1F [Compound 1157, 3-methoxy-4-(N-(naphthalen-2-ylmethyl)-2-(N-((4-(trifluoromethyl)pyridin-3-yl)methyl)-(2,3,4,5,6-pentafluoro-phenyl)sulfonamido)acetamido)benzoic acid] | 1000 to 3160 | 0.00167 to 2.37
